Data: paper PMC7251018, “Structures of a P4-ATPase lipid flippase in lipid bilayers” (Protein & Cell, 2020)

Experiments:
ctDnf1p-Cdc50p [1] = target: T1, ctDnf1p-Cdc50p (Thermochaetoides thermophila, UniProt G0S196); test: cryo-EM structure in lipid nanodiscs, […] Å; parameters: gene DNF1; purified heterodimer; reconstituted into lipid nanodiscs (MSP) for cryo-EM; printed residues D606 (phosphorylation site), Q549, N550, S555, S559, E561, N1153, S1158; with Cell division control protein 50 (CDC50 family beta-subunit); conditions: E1-ATP state; nucleotide-binding site, extended conformation
ctDnf1p-Cdc50p [2] = target: T1, ctDnf1p-Cdc50p; test: ATPase activity; assay type: biochemical; parameters: gene DNF1; purified heterodimer; reconstituted into lipid nanodiscs (MSP) for cryo-EM; printed residues D606 (phosphorylation site), Q549, N550, S555, S559, E561, N1153, S1158; with Cell division control protein 50 (CDC50 family beta-subunit); conditions: phospholipid-dependent
ctDnf1p-Cdc50p [3] = target: T1, ctDnf1p-Cdc50p; parameters: gene DNF1; conditions: E2P state; phosphorylation site D606; phosphate analogue

T1 sequence (G0S196 whole entry): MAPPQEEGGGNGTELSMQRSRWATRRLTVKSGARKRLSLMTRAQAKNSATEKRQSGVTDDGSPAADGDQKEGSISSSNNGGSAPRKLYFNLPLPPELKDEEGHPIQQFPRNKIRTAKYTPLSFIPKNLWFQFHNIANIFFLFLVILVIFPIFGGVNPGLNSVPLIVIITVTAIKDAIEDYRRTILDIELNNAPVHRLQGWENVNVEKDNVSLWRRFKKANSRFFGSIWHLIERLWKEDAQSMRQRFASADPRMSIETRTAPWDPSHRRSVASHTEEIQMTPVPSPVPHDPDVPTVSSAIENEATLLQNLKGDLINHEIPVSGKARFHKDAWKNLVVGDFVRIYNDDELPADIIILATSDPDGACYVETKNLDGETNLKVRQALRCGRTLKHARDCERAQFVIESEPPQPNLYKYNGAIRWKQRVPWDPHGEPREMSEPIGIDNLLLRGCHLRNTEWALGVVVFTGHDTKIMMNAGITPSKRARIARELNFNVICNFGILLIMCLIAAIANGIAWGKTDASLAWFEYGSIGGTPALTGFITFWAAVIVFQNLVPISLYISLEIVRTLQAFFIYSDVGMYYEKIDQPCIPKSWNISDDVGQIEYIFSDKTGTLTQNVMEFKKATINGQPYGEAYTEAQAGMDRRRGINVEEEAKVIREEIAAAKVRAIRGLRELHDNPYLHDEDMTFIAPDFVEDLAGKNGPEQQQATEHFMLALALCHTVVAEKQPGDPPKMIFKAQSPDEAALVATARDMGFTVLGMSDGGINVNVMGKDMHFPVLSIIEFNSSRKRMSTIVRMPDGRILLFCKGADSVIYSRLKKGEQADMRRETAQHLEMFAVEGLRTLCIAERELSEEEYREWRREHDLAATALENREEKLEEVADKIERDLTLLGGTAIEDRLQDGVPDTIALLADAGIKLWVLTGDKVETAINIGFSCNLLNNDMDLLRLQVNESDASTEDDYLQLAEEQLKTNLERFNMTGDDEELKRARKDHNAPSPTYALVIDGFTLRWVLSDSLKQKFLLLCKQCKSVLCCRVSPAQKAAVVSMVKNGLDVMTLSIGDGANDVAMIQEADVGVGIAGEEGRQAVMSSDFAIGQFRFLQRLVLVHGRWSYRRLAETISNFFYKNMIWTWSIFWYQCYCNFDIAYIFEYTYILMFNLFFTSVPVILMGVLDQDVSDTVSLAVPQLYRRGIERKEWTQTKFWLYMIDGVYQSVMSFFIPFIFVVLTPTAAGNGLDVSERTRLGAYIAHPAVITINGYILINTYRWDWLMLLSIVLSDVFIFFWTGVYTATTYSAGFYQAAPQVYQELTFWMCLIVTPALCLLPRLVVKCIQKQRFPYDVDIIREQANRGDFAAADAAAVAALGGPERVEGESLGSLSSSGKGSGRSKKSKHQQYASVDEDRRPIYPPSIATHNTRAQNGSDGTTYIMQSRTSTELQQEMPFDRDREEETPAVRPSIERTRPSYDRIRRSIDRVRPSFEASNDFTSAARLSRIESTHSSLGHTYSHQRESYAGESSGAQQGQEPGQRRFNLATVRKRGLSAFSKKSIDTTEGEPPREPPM
T1 sequence (G0SDN0 whole entry partner): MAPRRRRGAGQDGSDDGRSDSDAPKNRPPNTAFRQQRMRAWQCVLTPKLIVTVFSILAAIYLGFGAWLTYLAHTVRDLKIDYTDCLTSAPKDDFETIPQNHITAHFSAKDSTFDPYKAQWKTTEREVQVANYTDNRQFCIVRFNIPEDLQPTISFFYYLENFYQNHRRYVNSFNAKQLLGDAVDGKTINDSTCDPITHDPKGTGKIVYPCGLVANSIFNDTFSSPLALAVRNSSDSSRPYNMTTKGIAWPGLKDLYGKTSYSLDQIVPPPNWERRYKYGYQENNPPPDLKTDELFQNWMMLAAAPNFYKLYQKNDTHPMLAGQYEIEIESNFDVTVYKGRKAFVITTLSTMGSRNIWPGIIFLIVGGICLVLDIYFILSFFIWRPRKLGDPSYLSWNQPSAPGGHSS

Nc1ncnc2c1ncn2[C@@H]1O[C@H](COP(=O)(O)OP(=O)(O)CP(=O)(O)O)[C@@H](O)[C@H]1O [AMPPCP]
cryo-EM structure in lipid nanodiscs, 3.5 Å (ctDnf1p-Cdc50p [1]): In the E1-ATP structure, AMPPCP adapts an extended conformation

Nc1ncnc2c1ncn2[C@@H]1O[C@H](COP(=O)(O)OP(=O)(O)OP(=O)(O)O)[C@@H](O)[C@H]1O [ATP]
ATPase activity (ctDnf1p-Cdc50p [2]): The purified ctDnf1p-Cdc50p heterodimer showed phospholipid-dependent ATPase activity

[F][Be-]([F])[F] [BeF3^−]
cryo-EM structure in lipid nanodiscs, 3.4 Å (ctDnf1p-Cdc50p [3]): In the E2P structure, BeF3^− is bound at the phosphorylation site D606
